Data reported in PMC10467082, “Anti-Toxoplasma gondii Effects of Lipopeptide Derivatives of Lycosin-I” (Toxins, 2023).
Entries after “also recorded” stand apart in the source; their conditions may differ. Square brackets hold non-standard residues; d marks the D form. Ends that are not written are not given here. Peptide text beside a SMILES is read from it. * marks the point of attachment. Lauroyl = CCCCCCCCCCCC(=O)*; Ahx = NCCCCCC(=O)O

Key:
IFN-γ = format: in vivo, mouse; conditions: 4 mg/kg, after 5 days of treatment, qRT-PCR
Protocol: (§1) Once T. gondii has infected a host, a number of inflammatory responses can be induced in the host to resist T. gondii invasion and proliferation. Therefore, we wanted to investigate the expression levels of anti-inflammatory and pro-inflammatory factors in the mice treated with lipopeptides. The expression levels of IFN-γ, TNF-α, IL-4 and IL-10 in the spleen tissues of mice after 5 days of treatment were determined via qRT-PCR (Figure 5). […] Compared to the PBS group, all treatment groups promoted the upregulation of the pro-inflammatory cytokines IFN-γ and TNF-α and the anti-inflammatory cytokine IL-4.
(§2) Total RNA was extracted from each sample using Total RNA Isolation Kit (ENOVA BIO Co., Ltd., Wuhan, China), in accordance with the manufacturer’s instructions. Reverse transcription of RNA into cDNA was performed using the PerfectStart Uni RT&qPCR Kit (TransGen Biotech Co., Ltd., Beijing, China) in accordance with the instructions. cDNA was used as a template for qRT-PCR using PerfectStart Uni RT&qPCR Kit (TransGen Biotech Co., Ltd., Beijing, China). Primers, listed in Table 2, were designed and synthesized by a biotechnology company (Sangon Biotech Co., Ltd., Shanghai, China). Analysis was performed using the comparative threshold cycle method (2^−∆∆Ct). The gene expression levels of genes were normalized to those of housekeeping genes (β-actin or GAPDH).

TNF-α = format: in vivo, mouse; conditions: 4 mg/kg, after 5 days of treatment, qRT-PCR
Protocol: as §1, §2

IL-10 = format: in vivo, mouse; conditions: 4 mg/kg, after 5 days of treatment, qRT-PCR
Protocol: as §1, §2

IL-4 = format: in vivo, mouse; conditions: 4 mg/kg, after 5 days of treatment, qRT-PCR
Protocol: as §1, §2

T. gondii tachyzoites [1] = assay: Invasion assay of tachyzoites into HFFs; format: cell-based, Toxoplasma gondii; conditions: tachyzoites pretreated 2 h at 10 μM, HFFs infected MOI 5 for 2 h
Protocol: The HFF cells were seeded in 24-well plates with 14 mm coverslips (1 × 10^5 cells per well) and incubated for 24 h. Fresh tachyzoites were obtained aseptically from the peritoneal fluid of the KM mouse acutely infected with T. gondii. The tachyzoites were treated with Lycosin-I (5 μM, 10 μM), L-C12 (5 μM, 10 μM), L-an (5 μM, 10 μM), SDZ (10 μM, positive control) and DMEM (negative control) for 2 h each. The HFFs were then infected with pre-treated tachyzoites at a multiplicity of infection (MOI) of 5 (tachyzoites/cells = 5). After 2 h, the previous complete medium was removed and the HFFs were washed twice with PBS to remove extracellular tachyzoites. They were then fixed with methanol for 5 min, and then stained with Giemsa for 15 min. The coverslips were examined under a light microscope. The invasion rate of tachyzoites was calculated by counting the number of cells invaded by tachyzoites and the total number of cells in 5 randomly selected fields. Three independent experiments were carried out.

RH strain of T. gondii = format: in vivo, mouse; conditions: BALB/c mice, 1 × 10^3 tachyzoites i.p.; 4 mg/kg/day i.p. for 7 days; monitored 15 days; n = 8
Protocol: To evaluate the anti-T. gondii effect of lipopeptides in vivo, we established a mouse model acutely infected with the RH strain of T. gondii. Forty 8-week-old female BALB/c mice weighing 17–19 g were randomly divided into 5 groups (n = 8 per group) and intraperitoneally injected with 1 × 10^3 tachyzoites per mouse. Lycosin-I, L-C12, L-an and sulfadiazine (SDZ) were dissolved in PBS, respectively. As these peptides are small linear peptides that are easily degraded by pepsin; mice were treated with these peptides via intraperitoneal injection (the same way that the mice were infected with T. gondii) rather than oral gavage. After 4 h of infection, mice were traperitoneally injected with 4 mg/kg of Lycosin-I, L-C12, L-an and sulfadiazine solution (once a day) for 7 days. Mice in the negative control group were treated with PBS. Mice in this condition observed daily and the time of death was recorded. The experiment was approved by the Ethics Committee of the School of Basic Medicine of Central South University (approval number: 2021-KT24).

T. gondii tachyzoites [2] = format: cell-based, Toxoplasma gondii; conditions: 10 μM, 7 days, 500 tachyzoites per well, HFFs
Protocol: The HFF cells were seeded in 6-well plates (1 × 10^6 cells per well) and incubated for 48–72 h. Cells in the 6-well plates were infected with 500 fresh tachyzoites per well for 2 h. The well in which cells were not infected with tachyzoites was considered the blank control group. Cells infected with tachyzoites were then treated with Lycosin-I (10 μM), L-C12 (10 μM), L-an (10 μM), SDZ (10 μM, positive control) and DMEM (negative control), respectively. After 7 days, HFFs in the plates were washed twice with PBS, fixed with methanol for 5 min, and then stained with crystal violet for 20 min. Six-well plates were washed with running water, dried, photographed, and then the number and area of plaques were counted using Photoshop version 2020. Three independent experiments were carried out.

T. gondii tachyzoites [3] = assay: Intracellular proliferation assay of tachyzoites in HFFs; format: cell-based, Toxoplasma gondii; conditions: 10 μM, 24 h
Protocol: HFFs were seeded in 24-well plates (1 × 10^5 cells per well) with 14 mm coverslips and incubated for 24 h. The HFFs were infected with fresh tachyzoites at a MOI of 5 for 2 h. The HFFs were then washed twice with PBS to remove extracellular tachyzoites and then treated with Lycosin-I (5 μM, 10 μM), L-C12 (5 μM, 10 μM), L-an (5 μM, 10 μM), SDZ (10 μM, positive control) and DMEM (negative control) for 24 h each. The HFFs were then washed twice with PBS, fixed with methanol for 5 min, and then stained with Giemsa for 15 min. The coverslips were observed under a light microscope to count the number of tachyzoites in 100 parasitophorous vacuoles (PVs). Three independent experiments were carried out.

T. gondii tachyzoites [4] = assay: Serum stability assay: serum incubation followed by trypan blue assay; format: in vitro ADME, Toxoplasma gondii; conditions: 100 μM in PBS containing 10% fetal bovine serum, 37 °C, 24 h; read-out tachyzoite mortality by trypan blue; three independent experiments
Protocol: (§3) To evaluate the difference of anti-T. gondii in the vitro between lipopeptides and Lycosin-I, we set up different concentration gradients, including 2.5 μM, 5 μM, 10 μM, 20 μM and 40 μM. The freshly obtained tachyzoites (3 × 10^6) were incubated with different concentrations of lipopeptides and PBS at room temperature for 2 h, then centrifuged at 3000 rbp for 8 min and the supernatant was discarded. The tachyzoite pellet was resuspended in PBS and mixed well. Then, the tachyzoite suspension was stained with 0.4% trypan blue staining solution for 5 min. Tachyzoite viability was observed under a light microscope (Motic China Group Co., Ltd., Xiamen, China), and five fields were randomly selected to calculate tachyzoite mortality. Three independent experiments were carried out.
A combination of serum incubation and a trypan blue assay was used to investigate whether or not the anti-Toxoplasma activity of lipopeptides and Lycosin-I was affected by serum. Briefly, stock solutions (1 mM) of Lycosin-I, L-C12 and L-an were diluted into 100 μM solutions in PBS containing 10% fetal bovine serum, and incubated at 37 °C for 24 h. Fresh tachyzoites were then treated with these solutions as described in the method in Section 5.3 for lipopeptide screening. Three independent experiments were carried out.

[5] = test system: human foreskin fibroblasts (HFFs); assay: CCK-8 cell viability assay on host cells; format: cell-based; conditions: CCK-8, HFFs, 24 h; for cytotoxicity to HFFs: comparison with Lycosin-I where stated; for IC50: 80-1.25 μM twofold dilution, three independent experiments, read-out: half-inhibitory concentration (IC50) on HFF viability
Protocol: HFF cells were seeded in 96-well plates (1 × 10^4 cells per well). After 24 h of incubation, the previous complete medium was removed and replaced with the new complete medium containing different concentrations (80–1.25 μM, twofold serial dilution) of lipopeptides. Cells were treated with the complete medium in one well as the control group (each group was set up with three wells). After 24 h, 10 μL of CCK-8 reagent was added to each well and then incubated for 2 h. The absorbance value was measured at 450 nm using a microplate reader. Three independent experiments were carried out.

[6] = test system: T. gondii tachyzoites (RH strain); assay: Trypan blue assay of tachyzoite mortality (lipopeptide screening); format: cell-based, Toxoplasma gondii; conditions: 2.5, 5, 10, 20, 40 μM, 2 h at room temperature
Protocol: as §3

[7] = mouse serum (b5) / 10% serum, 24 h, mass spectrometry; cited from earlier work
Source text: Cationic peptides with an α-helical structure found in venoms constitute a class of antimicrobial peptides (AMPs). In this class, amphiphilic peptides with net positive charges tend to adopt an α-helix structure when in contact with a hydrophilic/hydrophobic interface (such as the membrane of microorganisms), which helps the AMPs to insert into the cell membrane and disrupt the integrity of the cell membrane. Phospholipids on cell membranes are one of the targets of transmembrane peptides with an α -helical structure. […] The serum stability of Lycosin-I was in ...

H-KGWFKAMKSIAKFIAKEKLKEHL-OH [Lycosin-I]
expression of IFN-γ in spleen compared to PBS group (IFN-γ): promoted the expression | expression of TNF-α in spleen compared to PBS group (TNF-α): promoted the expression | expression of IL-10 in spleen compared to PBS group (IL-10): inhibited the upregulation of IL-10 | expression of IL-4 in spleen compared to PBS group (IL-4): promoted IL-4 expression | inhibition of tachyzoite invasion compared with SDZ (T. gondii tachyzoites [1]): more pronounced inhibition than SDZ | survival time of mice compared to control group (RH strain of T. gondii): significantly prolonged the survival time | number and area of plaques in contrast with DMEM group (T. gondii tachyzoites [2]): significantly reduced | plaques compared to DMEM group (T. gondii tachyzoites [2]): reduced | proliferation rate of tachyzoites in HFFs (negative group = 100%) (T. gondii tachyzoites [3]; HFFs infected at MOI 5): below 55% | PVs with 16 tachyzoites (T. gondii tachyzoites [3]; proportion in 100 PVs): hard to see a PV with 16 tachyzoites

KGWFKAMKSIAKFIAKEKLKEHL [Lycosin-I]
anti-T. gondii activity after serum treatment compared to control untreated with serum (T. gondii tachyzoites [4]): significantly had reduced anti-T. gondii activity; also recorded: only slightly decreased | cytotoxicity to HFFs [5]: concentration-dependent cytotoxicity

NCCCCCC(=O)O [aminocaproic acid]
anti-T. gondii activity in vitro (tachyzoite mortality) [6]: no effect

CCCCCCCCCCCC(=O)N[C@@H](CCCCN)C(=O)NCC(=O)N[C@@H](Cc1c[nH]c2ccccc12)C(=O)N[C@@H](Cc1ccccc1)C(=O)N[C@@H](CCCCN)C(=O)N[C@@H](C)C(=O)N[C@@H](CCSC)C(=O)N[C@@H](CCCCN)C(=O)N[C@@H](CO)C(=O)N[C@H](C(=O)N[C@@H](C)C(=O)N[C@@H](CCCCN)C(=O)N[C@@H](Cc1ccccc1)C(=O)N[C@H](C(=O)N[C@@H](C)C(=O)N[C@@H](CCCCN)C(=O)N[C@@H](CCC(=O)O)C(=O)N[C@@H](CCCCN)C(=O)N[C@@H](CC(C)C)C(=O)N[C@@H](CCCCN)C(=O)N[C@@H](CCC(=O)O)C(=O)N[C@@H](Cc1cnc[nH]1)C(=O)N[C@@H](CC(C)C)C(=O)O)[C@@H](C)CC)[C@@H](C)CC [L-C12] (Lauroyl-KGWFKAMKSIAKFIAKEKLKEHL-OH)
anti-T. gondii activity after serum treatment compared to control untreated with serum (T. gondii tachyzoites [4]): no significant difference; also recorded: retained substantial anti-T. gondii activity | degradation after incubation in serum [7]: not degraded | cytotoxicity to HFFs [5]: higher cytotoxicity

CCCCCCCCCCCC(=O)N[C@@H](CCCCN)C(=O)NCC(=O)N[C@@H](Cc1c[nH]c2ccccc12)C(=O)N[C@@H](Cc1ccccc1)C(=O)N[C@@H](CCCCN)C(=O)N[C@@H](C)C(=O)N[C@@H](CCSC)C(=O)N[C@@H](CCCCN)C(=O)N[C@@H](CO)C(=O)N[C@H](C(=O)N[C@@H](C)C(=O)N[C@@H](CCCCN)C(=O)N[C@@H](Cc1ccccc1)C(=O)N[C@H](C(=O)N[C@@H](C)C(=O)N[C@@H](CCCCN)C(=O)N[C@@H](CCC(=O)O)C(=O)N[C@@H](CCCCN)C(=O)N[C@@H](CC(C)C)C(=O)N[C@@H](CCCCN)C(=O)N[C@@H](CCC(=O)O)C(=O)N[C@@H](Cc1c[nH]cn1)C(=O)N[C@@H](CC(C)C)C(=O)O)[C@@H](C)CC)[C@@H](C)CC [L-C12] (Lauroyl-KGWFKAMKSIAKFIAKEKLKEHL-OH)
IC50 [5]: 15.6 µM

CC[C@H](C)[C@H](NC(=O)[C@H](Cc1ccccc1)NC(=O)[C@H](CCCCN)NC(=O)[C@H](C)NC(=O)[C@@H](NC(=O)[C@H](CO)NC(=O)[C@H](CCCCN)NC(=O)[C@H](CCSC)NC(=O)[C@H](C)NC(=O)[C@H](CCCCN)NC(=O)[C@H](Cc1ccccc1)NC(=O)[C@H](Cc1c[nH]c2ccccc12)NC(=O)CNC(=O)[C@H](CCCCN)NC(=O)CCCCCN)[C@@H](C)CC)C(=O)N[C@@H](C)C(=O)N[C@@H](CCCCN)C(=O)N[C@@H](CCC(=O)O)C(=O)N[C@@H](CCCCN)C(=O)N[C@@H](CC(C)C)C(=O)N[C@@H](CCCCN)C(=O)N[C@@H](CCC(=O)O)C(=O)N[C@@H](Cc1c[nH]cn1)C(=O)N[C@@H](CC(C)C)C(=O)O [L-an] (H-[Ahx]KGWFKAMKSIAKFIAKEKLKEHL-OH)
anti-T. gondii activity after serum treatment compared to control untreated with serum (T. gondii tachyzoites [4]): no significant difference; also recorded: retained substantial anti-T. gondii activity | IC50 [5]: 30.9 µM | cytotoxicity to HFFs [5]: no significant difference
